What follows are compounds tested against Voltage-dependent L-type calcium channel subunit alpha-1C (Rattus norvegicus, UniProt P22002) (assay: Displacement of [3H](+)-PN200-110 binding from calcium channels of rat cardiac membranes.).
Format: cell membranes, Membrane

Voltage-dependent L-type calcium channel subunit alpha-1C, sequence (P22002 whole entry): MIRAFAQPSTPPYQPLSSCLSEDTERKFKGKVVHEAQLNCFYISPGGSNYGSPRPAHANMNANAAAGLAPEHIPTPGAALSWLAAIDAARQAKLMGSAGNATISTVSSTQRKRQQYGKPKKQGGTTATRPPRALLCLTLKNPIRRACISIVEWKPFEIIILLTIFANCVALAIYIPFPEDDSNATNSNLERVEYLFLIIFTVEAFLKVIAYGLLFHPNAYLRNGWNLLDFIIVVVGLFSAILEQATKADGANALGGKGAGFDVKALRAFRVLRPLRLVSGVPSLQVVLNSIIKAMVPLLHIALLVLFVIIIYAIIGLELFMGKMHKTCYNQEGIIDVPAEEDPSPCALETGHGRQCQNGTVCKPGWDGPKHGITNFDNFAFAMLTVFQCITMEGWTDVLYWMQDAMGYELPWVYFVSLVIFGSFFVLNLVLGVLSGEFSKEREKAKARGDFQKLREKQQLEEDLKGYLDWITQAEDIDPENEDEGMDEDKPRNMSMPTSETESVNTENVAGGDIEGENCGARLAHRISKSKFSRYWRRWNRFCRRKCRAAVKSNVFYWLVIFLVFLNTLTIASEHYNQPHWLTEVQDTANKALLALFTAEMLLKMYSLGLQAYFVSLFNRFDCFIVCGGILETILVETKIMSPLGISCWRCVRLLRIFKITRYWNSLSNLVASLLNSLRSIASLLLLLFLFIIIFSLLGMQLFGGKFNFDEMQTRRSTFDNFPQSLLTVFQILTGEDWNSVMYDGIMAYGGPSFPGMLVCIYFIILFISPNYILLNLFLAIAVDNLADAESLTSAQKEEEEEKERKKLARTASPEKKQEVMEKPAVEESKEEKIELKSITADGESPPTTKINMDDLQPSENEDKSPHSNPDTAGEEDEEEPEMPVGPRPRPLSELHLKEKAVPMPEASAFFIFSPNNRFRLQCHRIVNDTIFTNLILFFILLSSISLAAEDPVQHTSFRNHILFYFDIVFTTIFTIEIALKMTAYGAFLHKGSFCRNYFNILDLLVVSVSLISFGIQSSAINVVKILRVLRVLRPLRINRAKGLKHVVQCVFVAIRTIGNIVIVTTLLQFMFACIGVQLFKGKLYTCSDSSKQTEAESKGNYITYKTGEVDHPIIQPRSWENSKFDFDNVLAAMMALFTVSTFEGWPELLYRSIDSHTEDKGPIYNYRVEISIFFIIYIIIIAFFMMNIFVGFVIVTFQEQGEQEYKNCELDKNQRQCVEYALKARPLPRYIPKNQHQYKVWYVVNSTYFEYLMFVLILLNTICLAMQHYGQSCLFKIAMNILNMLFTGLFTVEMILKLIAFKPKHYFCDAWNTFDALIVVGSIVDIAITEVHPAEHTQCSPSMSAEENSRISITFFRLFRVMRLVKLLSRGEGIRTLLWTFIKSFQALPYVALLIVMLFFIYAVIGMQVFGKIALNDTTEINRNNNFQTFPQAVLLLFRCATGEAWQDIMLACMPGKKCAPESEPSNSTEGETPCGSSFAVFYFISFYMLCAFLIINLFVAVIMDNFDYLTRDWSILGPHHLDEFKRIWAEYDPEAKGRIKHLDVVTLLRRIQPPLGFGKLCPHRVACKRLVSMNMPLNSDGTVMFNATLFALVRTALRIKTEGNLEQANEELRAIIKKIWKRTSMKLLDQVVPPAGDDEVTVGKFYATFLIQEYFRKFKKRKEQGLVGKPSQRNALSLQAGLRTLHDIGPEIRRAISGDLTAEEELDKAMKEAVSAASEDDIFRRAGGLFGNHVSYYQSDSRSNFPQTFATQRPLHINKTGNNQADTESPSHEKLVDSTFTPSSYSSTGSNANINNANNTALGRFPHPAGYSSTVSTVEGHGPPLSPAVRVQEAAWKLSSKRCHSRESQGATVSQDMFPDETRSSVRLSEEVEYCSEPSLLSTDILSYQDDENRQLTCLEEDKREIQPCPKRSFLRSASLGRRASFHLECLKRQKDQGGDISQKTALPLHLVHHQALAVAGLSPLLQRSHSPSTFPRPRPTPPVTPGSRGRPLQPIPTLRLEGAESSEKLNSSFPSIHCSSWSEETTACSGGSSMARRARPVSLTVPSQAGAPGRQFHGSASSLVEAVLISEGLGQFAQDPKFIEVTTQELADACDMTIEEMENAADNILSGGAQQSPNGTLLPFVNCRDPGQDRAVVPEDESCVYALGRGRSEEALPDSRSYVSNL

Row | Ki | SMILES
1 | 2.16 nM | CCOC(=O)C1=C(C)N=C(C)/C(=C(/O)OCC)C1c1c(C)noc1CCc1cccc2ccccc12 (stereo not drawn)
2 | 45.5 nM | CCOC(=O)C1=C(C)N=C(C)/C(=C(/O)OCC)C1c1c(C)noc1CCc1ccccc1-c1ccccc1 (stereo not drawn)
3 | 10.7 nM | CCOC(=O)C1=C(C)N=C(C)/C(=C(/O)OCC)C1c1c(C)noc1CCc1ccc2ccccc2c1 (stereo not drawn)

From ChEMBL document CHEMBL1132339, “Lipophilic 4-isoxazolyl-1,4-dihydropyridines: synthesis and structure-activity relationships” (J Med Chem, 1999)
